Experimental data published in patent US10028966B2 (Avalyn Pharma Inc., priority 2014, dated 2018).
Where two headings read alike, the source gives them in different places. Marks after values point to notes of the source that are not given here.

Key:
[1] = molecular target: T1, 2E1 (Homo sapiens, UniProt P05181); details: hepatic microsomes; cited from earlier work
T1 construct: In vitro metabolism studies with hepatic microsomes; from tissue; host or cells: hepatic microsomes

[2] = Pharmacokinetics and lung-tissue distribution after oral gavage or intratracheal aerosol; type: in vivo, Sprague-Dawley rats; details: for half-life / Cmax / AUC(0-t): Sprague-Dawley, rat, inhaled or intranasal; for AUC(0-t): read-out: Plasma AUC0-6 hrs; for Lung Cmax: immediate post-dose calculated from direct-lung delivered dose
[3] = tested on: bleomycin model of pulmonary fibrosis; assay: Bleomycin model of pulmonary fibrosis (hydroxyproline, fibrosis score); type: in vivo, Wistar rats; details: for Right lung Average Hydroxyproline: days 7-28; for Average Fibrosis Score, difference from bleomycin control / Right lung Average Hydroxyproline, difference from bleomycin control: sham-subtracted
Method: To compare anti-fibrotic efficacy between extended-duration intratracheal, direct-lung aerosol administration and oral gavage, the bleomycin model of pulmonary fibrosis was performed. Doses for this study were selected based upon pharmacokinetic parameters obtained in Table 22 (from Example 8). Briefly, Wistar rats (175-225 grams) were administered bleomycin by the intratracheal route using a Penn Century MicroSprayer® catheter. On the seventh day following bleomycin exposure, animals initiated treatment with either saline or pirfenidone. Animals were dosed once a day on days 7 through 28, and euthanized on day 29. Pirfenidone was administered either intratracheally using Penn Century MicroSprayer catheter or by oral gavage. Sham and bleomycin control groups received either no treatment or intratracheal saline by Penn Century MicroSprayer catheter. While dosing more frequently (or less frequently) may improve the observed effects, anesthesia required for intratracheal administration reduced animal weight gain (reduced food intake) and, thus limited dosing to once a day for this study. Because anesthesia reduced weight gain, all study animals (intratracheal, oral and control) received once-a-day isoflurane using the same technique and duration. Twelve animals were enrolled into each dosing group. […] Oral gavage was administered in a single 300 mcL volume. Due to technical restrictions, instead of the mg/kg dose being equally split between six 50 mcL administrations over 2 minutes, intratracheal administration was performed with three equal 50 mcL volumes administered every 40 seconds over the same period. For dose selection, data from Table 22 was extrapolated. On day 29, animals were euthanized. Right lungs were extracted and measured for hydroxyproline content, while left lungs were subjected to histology. Histological sections were stained with picrosirius red and scored for lung tissue fibrosis. Twenty random photographs of each stained lung tissue section were taken, blinded and scored by an independent review panel. Observations were pooled for analysis.

[4] = Aerosol tolerability analysis of low concentration dosage forms; details: citrate 5 mM, MgCl2 130 mM, pH 5.5, pirfenidone 16 mg/mL
Excerpt: Additional observations include maintaining osmolality between about 250 to about 500 mOsmo/kg. The tolerability for formulations with an osmolalty outside this range may be adjusted with modifications in the above formulation parameters and device output and aerosol particle size characteristics.

[5] = Bleomycin + IT pirfenidone 0.9 mg/kg
[6] = Bleomycin + IT pirfenidone 3.0 mg/kg
[7] = Bleomycin + IT pirfenidone 6.4 mg/kg
[8] = Bleomycin + PO pirfenidone 30 mg/kg
[9] = Bleomycin + PO pirfenidone 100 mg/kg

T1 sequence (P05181 whole entry): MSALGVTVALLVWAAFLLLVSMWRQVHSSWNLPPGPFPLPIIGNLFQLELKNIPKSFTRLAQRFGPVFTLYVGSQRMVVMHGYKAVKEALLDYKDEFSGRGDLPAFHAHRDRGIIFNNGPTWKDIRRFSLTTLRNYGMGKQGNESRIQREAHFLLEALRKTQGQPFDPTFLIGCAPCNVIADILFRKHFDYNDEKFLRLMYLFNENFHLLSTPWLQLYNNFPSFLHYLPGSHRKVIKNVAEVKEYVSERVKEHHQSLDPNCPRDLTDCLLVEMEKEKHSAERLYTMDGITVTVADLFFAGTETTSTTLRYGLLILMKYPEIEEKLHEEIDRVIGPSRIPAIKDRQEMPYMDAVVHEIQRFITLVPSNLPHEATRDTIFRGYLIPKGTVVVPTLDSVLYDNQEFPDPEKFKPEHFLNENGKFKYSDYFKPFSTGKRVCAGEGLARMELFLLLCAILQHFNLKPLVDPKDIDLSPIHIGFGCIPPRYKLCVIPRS

Cc1ccc(=O)n(-c2ccccc2)c1 [pirfenidone, 5-methyl-1-phenyl-2-(1H)-pyridone]
contribution to pirfenidone metabolism [1]: less than 13%
half-life ([2]; lung, 1 mg/kg, aerosol 1 mg/kg, read-out: Lung T1/2 α): < 1 min
half-life ([2]; lung, 1 mg/kg, aerosol 1 mg/kg, read-out: Lung T1/2 β): 45 min
half-life ([2]; lung, 5 mg/kg, aerosol 5 mg/kg, read-out: Lung T1/2 α): < 1 min
half-life ([2]; lung, 5 mg/kg, aerosol 5 mg/kg, read-out: Lung T1/2 β): 45 min
half-life ([2]; plasma, 1 mg/kg, aerosol 1 mg/kg, read-out: Plasma T1/2): 30 min
half-life ([2]; plasma, 5 mg/kg, aerosol 5 mg/kg, read-out: Plasma T1/2): 30 min
Cmax ([2]; plasma, aerosol 1 mg/kg): 1100 ng/mL
AUC(0-t) ([2]; plasma, aerosol 1 mg/kg): 900 ng·h/mL
Cmax ([2]; plasma, aerosol 5 mg/kg): 7000 ng/mL
AUC(0-t) ([2]; plasma, aerosol 5 mg/kg): 4500 ng·h/mL
Lung AUC (for time >1 μg/g) ([2]; aerosol 1 mg/kg): 5.2 mg·h/kg
Lung TOE, time of exposure over 1 μg/g lung tissue ([2]; aerosol 1 mg/kg): 5 min
Lung AUC (for time >1 μg/g) ([2]; aerosol 5 mg/kg): 25.4 mg·h/kg
Lung TOE, time of exposure over 1 μg/g lung tissue ([2]; aerosol 5 mg/kg): 84 min
Lung Cmax ([2]; aerosol (bolus intratracheal) 1 mg/kg): 101 µg/g
Lung Cmax ([2]; aerosol (bolus intratracheal) 5 mg/kg): 508 µg/g
Lung AUC (for time >1 μg/g) ([2]; oral 70 mg/kg): 4.3 mg·h/kg
possible lung tissue Cmax ([3]; 0.9 mg/kg dose to 250 gram rat, lung about 1.5 grams, whole dose): ≤ 150 mcg/gram
possible lung tissue Cmax ([3]; 0.9 mg/kg intratracheal dose divided into thirds): about 50 mcg/gram lung tissue
anti-fibrotic efficacy ([3]; 3.0 mg/kg intratracheal, direct lung aerosol, once a day days 7-28): no observed pirfenidone efficacy
Average Fibrosis Score, Picrosirius Red-stained left lung sections [3, 5]: 2.88*
Lung Tissue AUC0-2 hrs [3, 5]: 2.6 µg·h/g
Lung Tissue Cmax [3, 5]: 11.6 µg/g
Right lung Average Hydroxyproline ([3]; Bleomycin + IT pirfenidone 0.9 mg/kg once a day): 2.88* mg/right lung
Average Fibrosis Score, difference from bleomycin control [3, 5]: −0.53*, ****
Right lung Average Hydroxyproline, difference from bleomycin control [3, 5]: −0.70*, **** mg/right lung
Average Fibrosis Score, Picrosirius Red-stained left lung sections [3, 6]: 3.66
Lung Tissue AUC0-2 hrs [3, 6]: 7.3 µg·h/g
Lung Tissue Cmax [3, 6]: 33.5 µg/g
Right lung Average Hydroxyproline ([3]; Bleomycin + IT pirfenidone 3.0 mg/kg once a day): 3.56 mg/right lung
Average Fibrosis Score, difference from bleomycin control [3, 6]: 0.26***, ****
Right lung Average Hydroxyproline, difference from bleomycin control [3, 6]: −0.02**, **** mg/right lung
Average Fibrosis Score, Picrosirius Red-stained left lung sections [3, 7]: 3.47
Lung Tissue AUC0-2 hrs [3, 7]: 15.5 µg·h/g
Lung Tissue Cmax [3, 7]: 71.5 µg/g
Right lung Average Hydroxyproline ([3]; Bleomycin + IT pirfenidone 6.4 mg/kg once a day): 3.50 mg/right lung
Average Fibrosis Score, difference from bleomycin control [3, 7]: 0.07**, ****
Right lung Average Hydroxyproline, difference from bleomycin control [3, 7]: −0.08***, **** mg/right lung
Average Fibrosis Score, Picrosirius Red-stained left lung sections [3, 8]: 3.11
Lung Tissue AUC0-2 hrs [3, 8]: 18.2 µg·h/g
Lung Tissue Cmax [3, 8]: 11.8 µg/g
Right lung Average Hydroxyproline ([3]; Bleomycin + PO pirfenidone 30 mg/kg once a day): 3.65 mg/right lung
Average Fibrosis Score, difference from bleomycin control [3, 8]: 0.68*, **
Right lung Average Hydroxyproline, difference from bleomycin control [3, 8]: 0.43*, ** mg/right lung
Average Fibrosis Score, Picrosirius Red-stained left lung sections [3, 9]: 3.61
Lung Tissue AUC0-2 hrs [3, 9]: 34.4 µg·h/g
Lung Tissue Cmax [3, 9]: 33.6 µg/g
Right lung Average Hydroxyproline ([3]; Bleomycin + PO pirfenidone 100 mg/kg once a day): 3.73 mg/right lung
Average Fibrosis Score, difference from bleomycin control [3, 9]: 1.18***
Right lung Average Hydroxyproline, difference from bleomycin control [3, 9]: 0.51*** mg/right lung
anti-fibrotic efficacy (fibrosis, hydroxyproline), direct lung versus oral ([3]; intratracheal aerosol versus oral gavage): more efficacious
Est. Osmolality [4]: 490 mOsmo/Kg
Throat Irritation ([4]; 3.7 micron): 3
